Experimental data published in patent US20100305098A1, “METHODS OF USE” (priority 2007, published 2010).

What was measured:
PRP = molecular target: T1, PRP (Homo sapiens, UniProt P49683); assay: FLIPR functional screen; assay type: cell-based; settings: antagonist mode
T1 construct: Millipore

OPRM1 = molecular target: T2, OPRM1 (Homo sapiens, UniProt P35372); assay: FLIPR functional screen; assay type: cell-based; settings: antagonist mode
T2 construct: Millipore

CRF2 = molecular target: T3, CRF2 (Homo sapiens, UniProt Q13324); assay: FLIPR functional screen; assay type: cell-based; settings: antagonist mode
T3 construct: Millipore

BB1 = molecular target: T4, BB1 (Homo sapiens, UniProt P28336); assay: FLIPR functional screen; assay type: cell-based; settings: antagonist mode
T4 construct: Millipore

EP3 = molecular target: T5, EP3 (Homo sapiens, UniProt P43115); assay: FLIPR functional screen; assay type: cell-based; settings: antagonist mode
T5 construct: Millipore

PAC1 = molecular target: T6, PAC1 (Homo sapiens, UniProt P41586); assay: FLIPR functional screen; assay type: cell-based; settings: antagonist mode
T6 construct: Millipore

5-HT2B = molecular target: T7, 5-HT2B (Homo sapiens, UniProt P41595); assay: FLIPR functional screen; assay type: cell-based; settings: antagonist mode
T7 construct: purchased Millipore (outsourced screen)

CX3CR1 = molecular target: T8, CX3CR1 (Homo sapiens, UniProt P49238); assay: FLIPR functional screen; assay type: cell-based; settings: antagonist mode
T8 construct: Millipore

ETB = molecular target: T9, ETB (Homo sapiens, UniProt P24530); assay: FLIPR functional screen; assay type: cell-based; settings: antagonist mode
T9 construct: Millipore

A3 = molecular target: T10, A3 (Homo sapiens, UniProt P0DMS8); assay: FLIPR functional screen; assay type: cell-based; settings: antagonist mode
T10 construct: purchased Millipore (outsourced screen)

PTH2 = molecular target: T11, PTH2 (Homo sapiens, UniProt P49190); assay: FLIPR functional screen; assay type: cell-based; settings: antagonist mode
T11 construct: Millipore

SST4 = molecular target: T12, SST4 (Homo sapiens, UniProt P31391); assay: FLIPR functional screen; assay type: cell-based; settings: antagonist mode
T12 construct: Millipore

M3 = molecular target: T13, M3 (Homo sapiens, UniProt P20309); assay: FLIPR functional screen; assay type: cell-based; settings: antagonist mode
T13 construct: Millipore

EP4 [1] = molecular target: T14, EP4 (Homo sapiens, UniProt P35408); assay: FLIPR functional screen; assay type: cell-based
T14 construct: SE302 cells that express endogenous EP4; endogenous in cells; host or cells: SE302 cells

VPAC2 = molecular target: T15, VPAC2 (Homo sapiens, UniProt P41587); assay: FLIPR functional screen; assay type: cell-based; settings: antagonist mode
T15 construct: Millipore

GPR54 = molecular target: T16, GPR54 (Homo sapiens, UniProt Q969F8); assay: FLIPR functional screen; assay type: cell-based; settings: antagonist mode
T16 construct: Millipore

S1P5 = molecular target: T17, S1P5 (Homo sapiens, UniProt Q9H228); assay: FLIPR functional screen; assay type: cell-based; settings: antagonist mode
T17 construct: Millipore

BB3 = molecular target: T18, BB3 (Homo sapiens, UniProt P32247); assay: FLIPR functional screen; assay type: cell-based; settings: antagonist mode
T18 construct: Millipore

CHEMR23 = molecular target: T19, CHEMR23 (Homo sapiens, UniProt Q99788); assay: FLIPR functional screen; assay type: cell-based; settings: antagonist mode
T19 construct: Millipore

OX1 = molecular target: T20, OX1 (Homo sapiens, UniProt O43613); assay: FLIPR functional screen; assay type: cell-based; settings: antagonist mode
T20 construct: Millipore

NK3 = molecular target: T21, NK3 (Homo sapiens, UniProt P29371); assay: FLIPR functional screen; assay type: cell-based; settings: antagonist mode
T21 construct: Millipore

S1P1 = molecular target: T22, S1P1 (Homo sapiens, UniProt P21453); assay: FLIPR functional screen; assay type: cell-based; settings: antagonist mode
T22 construct: Millipore

V1A = molecular target: T23, V1A (Homo sapiens, UniProt P37288); assay: FLIPR functional screen; assay type: cell-based; settings: antagonist mode
T23 construct: Millipore

NK2 = molecular target: T24, NK2 (Homo sapiens, UniProt P21452); assay: FLIPR functional screen; assay type: cell-based; settings: antagonist mode
T24 construct: Millipore

[2] = molecular target: T25, Leukotriene, Cysteinyl CysLT2 (Homo sapiens, UniProt Q9NS75); assay: Competitive radioligand binding (MDS Pharma)
T25 construct: purchased MDS Pharma (outsourced assay)

EP4 [3] = molecular target: T14, EP4; assay: PGE2 induced CRE-PLAP reporter assay in SE302 cells; assay type: cell-based; settings: read-out: IC50 against PGE2 induced CRE-PLAP reporter activity
Experimental: CRE-PLAP reporter assay. SE302 cells that express endogenous EP4 were stimulated with PGE2 in the presence or absence of ER-819762 for overnight, and PLAP activity was measured.

GABA = molecular target: T26, GABA (Homo sapiens, UniProt Q9UBS5); assay: FLIPR functional screen; assay type: cell-based; settings: antagonist mode
T26 construct: Millipore

PAR4 = molecular target: T27, PAR4 (Homo sapiens, UniProt Q96RI0); assay: FLIPR functional screen; assay type: cell-based; settings: antagonist mode
T27 construct: Millipore

GCGR = molecular target: T28, GCGR (Homo sapiens, UniProt P47871); assay: FLIPR functional screen; assay type: cell-based; settings: antagonist mode
T28 construct: Millipore

CCK2 = molecular target: T29, CCK2 (Homo sapiens, UniProt P32239); assay: FLIPR functional screen; assay type: cell-based; settings: antagonist mode
T29 construct: Millipore

Leukotriene, BLT (LTB4) = molecular target: T30, Leukotriene, BLT (LTB4) (Homo sapiens, UniProt Q15722); assay: Competitive radioligand binding (MDS Pharma)
T30 construct: purchased MDS Pharma (outsourced assay) 250510

LPA3 = molecular target: T31, LPA3 (Homo sapiens, UniProt Q9UBY5); assay: FLIPR functional screen; assay type: cell-based; settings: antagonist mode
T31 construct: Millipore

FPR1 = molecular target: T32, FPR1 (Homo sapiens, UniProt P21462); assay: FLIPR functional screen; assay type: cell-based; settings: antagonist mode
T32 construct: Millipore

TRH = molecular target: T33, TRH (Homo sapiens, UniProt P34981); assay: FLIPR functional screen; assay type: cell-based; settings: antagonist mode
T33 construct: Millipore

MC2 = molecular target: T34, MC2 (Homo sapiens, UniProt Q01718); assay: FLIPR functional screen; assay type: cell-based; settings: antagonist mode
T34 construct: Millipore

OX2 = molecular target: T35, OX2 (Homo sapiens, UniProt O43614); assay: FLIPR functional screen; assay type: cell-based; settings: antagonist mode
T35 construct: Millipore

RDKR2 = molecular target: T36, RDKR2 (Homo sapiens, UniProt P30411); assay: FLIPR functional screen; assay type: cell-based; settings: antagonist mode
T36 construct: Millipore

H2 = molecular target: T37, H2 (Homo sapiens, UniProt P25021); assay: FLIPR functional screen; assay type: cell-based; settings: antagonist mode
T37 construct: Millipore

T14 sequence (P35408 whole entry): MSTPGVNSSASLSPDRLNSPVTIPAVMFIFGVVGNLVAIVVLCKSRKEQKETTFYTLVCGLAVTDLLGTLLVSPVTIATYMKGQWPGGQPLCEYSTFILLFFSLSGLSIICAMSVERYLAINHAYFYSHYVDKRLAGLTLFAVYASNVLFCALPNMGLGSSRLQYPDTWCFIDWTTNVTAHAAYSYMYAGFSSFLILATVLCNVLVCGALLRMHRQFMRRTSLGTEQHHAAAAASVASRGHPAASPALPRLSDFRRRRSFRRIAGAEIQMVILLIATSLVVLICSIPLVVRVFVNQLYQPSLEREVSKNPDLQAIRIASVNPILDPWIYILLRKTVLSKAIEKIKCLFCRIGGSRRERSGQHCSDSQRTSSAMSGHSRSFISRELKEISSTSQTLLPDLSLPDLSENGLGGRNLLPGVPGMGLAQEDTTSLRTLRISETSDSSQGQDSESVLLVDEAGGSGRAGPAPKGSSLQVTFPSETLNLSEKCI
T30 sequence (Q15722 whole entry): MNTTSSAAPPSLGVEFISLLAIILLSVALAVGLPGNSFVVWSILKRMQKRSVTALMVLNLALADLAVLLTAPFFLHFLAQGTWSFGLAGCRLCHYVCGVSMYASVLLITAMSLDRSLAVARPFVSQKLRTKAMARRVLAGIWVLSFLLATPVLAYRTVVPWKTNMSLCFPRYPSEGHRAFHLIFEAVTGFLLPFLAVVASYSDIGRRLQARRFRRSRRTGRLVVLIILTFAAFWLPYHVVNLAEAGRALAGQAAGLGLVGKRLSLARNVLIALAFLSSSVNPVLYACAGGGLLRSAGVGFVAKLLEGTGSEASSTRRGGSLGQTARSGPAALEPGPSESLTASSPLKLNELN
T25 sequence (Q9NS75 whole entry): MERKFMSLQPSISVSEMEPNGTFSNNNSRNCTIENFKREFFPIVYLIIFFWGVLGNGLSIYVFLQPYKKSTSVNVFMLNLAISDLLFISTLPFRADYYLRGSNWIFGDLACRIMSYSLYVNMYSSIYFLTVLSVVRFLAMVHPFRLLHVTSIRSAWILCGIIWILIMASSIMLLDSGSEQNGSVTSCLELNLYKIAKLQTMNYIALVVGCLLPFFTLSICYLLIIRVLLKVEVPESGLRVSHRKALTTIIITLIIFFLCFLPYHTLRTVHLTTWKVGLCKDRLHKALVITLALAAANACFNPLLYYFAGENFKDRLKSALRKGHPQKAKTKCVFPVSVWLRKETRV
T11 sequence (P49190 25-550): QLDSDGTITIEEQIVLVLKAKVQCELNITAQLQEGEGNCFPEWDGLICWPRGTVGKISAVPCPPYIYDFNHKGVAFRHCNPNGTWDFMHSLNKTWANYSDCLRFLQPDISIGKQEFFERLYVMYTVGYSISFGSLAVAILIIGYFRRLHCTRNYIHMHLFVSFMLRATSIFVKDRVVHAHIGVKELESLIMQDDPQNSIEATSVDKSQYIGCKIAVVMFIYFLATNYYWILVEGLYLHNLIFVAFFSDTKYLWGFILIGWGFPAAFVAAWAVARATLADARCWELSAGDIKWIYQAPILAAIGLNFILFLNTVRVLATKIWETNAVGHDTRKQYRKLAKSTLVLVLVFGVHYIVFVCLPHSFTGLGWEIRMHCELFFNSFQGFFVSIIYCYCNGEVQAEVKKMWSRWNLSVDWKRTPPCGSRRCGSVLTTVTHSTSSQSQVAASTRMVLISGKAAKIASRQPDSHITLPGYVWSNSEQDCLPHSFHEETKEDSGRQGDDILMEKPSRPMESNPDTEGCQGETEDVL
T28 sequence (P47871 26-477, species assumed): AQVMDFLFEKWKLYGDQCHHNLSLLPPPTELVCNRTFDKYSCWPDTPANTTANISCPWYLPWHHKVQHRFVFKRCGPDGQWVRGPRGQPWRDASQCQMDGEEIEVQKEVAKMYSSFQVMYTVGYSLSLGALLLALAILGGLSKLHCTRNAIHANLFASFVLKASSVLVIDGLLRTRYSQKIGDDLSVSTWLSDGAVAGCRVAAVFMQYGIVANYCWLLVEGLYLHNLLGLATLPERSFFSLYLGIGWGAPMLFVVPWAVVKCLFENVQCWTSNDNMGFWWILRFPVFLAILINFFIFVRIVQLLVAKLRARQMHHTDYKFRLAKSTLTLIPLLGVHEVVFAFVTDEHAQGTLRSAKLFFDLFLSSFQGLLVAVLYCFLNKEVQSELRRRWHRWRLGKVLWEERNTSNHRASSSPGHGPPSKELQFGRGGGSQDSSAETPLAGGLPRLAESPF
T4 sequence (P28336 whole entry): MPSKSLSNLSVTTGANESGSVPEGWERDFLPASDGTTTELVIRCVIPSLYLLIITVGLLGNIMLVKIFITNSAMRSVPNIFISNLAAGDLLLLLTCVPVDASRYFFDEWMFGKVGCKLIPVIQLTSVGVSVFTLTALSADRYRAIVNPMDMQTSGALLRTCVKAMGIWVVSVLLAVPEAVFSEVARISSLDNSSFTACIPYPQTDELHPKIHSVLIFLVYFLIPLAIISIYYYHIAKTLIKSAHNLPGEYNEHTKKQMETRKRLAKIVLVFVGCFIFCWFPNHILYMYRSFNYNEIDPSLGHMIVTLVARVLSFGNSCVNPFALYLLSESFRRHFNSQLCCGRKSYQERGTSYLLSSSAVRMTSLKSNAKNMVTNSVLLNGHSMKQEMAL
T8 sequence (P49238 whole entry, species assumed): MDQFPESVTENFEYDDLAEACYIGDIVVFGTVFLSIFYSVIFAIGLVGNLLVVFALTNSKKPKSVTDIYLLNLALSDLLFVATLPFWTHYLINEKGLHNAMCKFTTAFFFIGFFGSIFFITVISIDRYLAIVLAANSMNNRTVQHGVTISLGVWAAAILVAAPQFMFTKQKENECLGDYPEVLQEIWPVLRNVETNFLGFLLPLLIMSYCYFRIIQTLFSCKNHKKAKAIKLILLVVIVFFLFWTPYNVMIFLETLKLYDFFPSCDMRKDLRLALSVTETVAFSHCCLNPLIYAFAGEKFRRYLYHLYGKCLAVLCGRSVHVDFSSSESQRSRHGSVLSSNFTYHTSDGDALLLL
T13 sequence (P20309 whole entry): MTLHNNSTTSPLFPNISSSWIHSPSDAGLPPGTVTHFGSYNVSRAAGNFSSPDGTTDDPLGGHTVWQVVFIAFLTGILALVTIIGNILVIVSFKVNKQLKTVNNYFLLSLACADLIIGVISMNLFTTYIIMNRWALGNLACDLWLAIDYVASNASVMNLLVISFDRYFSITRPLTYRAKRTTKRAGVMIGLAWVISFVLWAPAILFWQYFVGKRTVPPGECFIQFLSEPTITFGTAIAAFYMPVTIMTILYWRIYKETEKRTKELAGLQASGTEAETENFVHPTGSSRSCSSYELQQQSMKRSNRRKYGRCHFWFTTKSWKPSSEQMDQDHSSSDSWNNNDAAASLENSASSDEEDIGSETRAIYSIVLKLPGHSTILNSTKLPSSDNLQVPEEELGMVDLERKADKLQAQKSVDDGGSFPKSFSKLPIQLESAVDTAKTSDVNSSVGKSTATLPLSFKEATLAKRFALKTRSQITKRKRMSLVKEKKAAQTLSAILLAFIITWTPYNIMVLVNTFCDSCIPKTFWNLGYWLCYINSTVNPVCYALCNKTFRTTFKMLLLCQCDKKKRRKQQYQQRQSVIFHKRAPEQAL
T20 sequence (O43613 whole entry): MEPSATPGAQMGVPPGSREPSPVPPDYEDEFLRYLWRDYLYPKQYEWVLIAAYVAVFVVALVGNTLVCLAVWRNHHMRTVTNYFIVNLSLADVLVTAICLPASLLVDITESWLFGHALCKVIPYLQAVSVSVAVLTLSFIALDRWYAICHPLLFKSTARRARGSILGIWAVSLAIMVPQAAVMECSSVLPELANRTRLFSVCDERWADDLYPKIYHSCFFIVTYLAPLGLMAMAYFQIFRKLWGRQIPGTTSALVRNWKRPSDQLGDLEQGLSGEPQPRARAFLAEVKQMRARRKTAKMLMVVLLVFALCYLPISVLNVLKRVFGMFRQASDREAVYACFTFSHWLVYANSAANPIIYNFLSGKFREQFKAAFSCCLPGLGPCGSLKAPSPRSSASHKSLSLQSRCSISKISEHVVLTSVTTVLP
T16 sequence (Q969F8 whole entry, species assumed): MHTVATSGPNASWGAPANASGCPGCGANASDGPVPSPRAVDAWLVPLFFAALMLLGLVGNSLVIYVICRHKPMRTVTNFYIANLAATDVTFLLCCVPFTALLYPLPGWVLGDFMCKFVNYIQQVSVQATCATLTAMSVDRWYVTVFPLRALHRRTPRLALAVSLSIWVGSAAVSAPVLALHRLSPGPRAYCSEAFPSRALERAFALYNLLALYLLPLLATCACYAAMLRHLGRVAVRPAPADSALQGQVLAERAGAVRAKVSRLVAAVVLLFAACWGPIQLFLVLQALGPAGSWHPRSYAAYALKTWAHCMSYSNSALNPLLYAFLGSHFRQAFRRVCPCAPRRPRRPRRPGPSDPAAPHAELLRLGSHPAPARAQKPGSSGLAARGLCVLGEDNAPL
T23 sequence (P37288 whole entry): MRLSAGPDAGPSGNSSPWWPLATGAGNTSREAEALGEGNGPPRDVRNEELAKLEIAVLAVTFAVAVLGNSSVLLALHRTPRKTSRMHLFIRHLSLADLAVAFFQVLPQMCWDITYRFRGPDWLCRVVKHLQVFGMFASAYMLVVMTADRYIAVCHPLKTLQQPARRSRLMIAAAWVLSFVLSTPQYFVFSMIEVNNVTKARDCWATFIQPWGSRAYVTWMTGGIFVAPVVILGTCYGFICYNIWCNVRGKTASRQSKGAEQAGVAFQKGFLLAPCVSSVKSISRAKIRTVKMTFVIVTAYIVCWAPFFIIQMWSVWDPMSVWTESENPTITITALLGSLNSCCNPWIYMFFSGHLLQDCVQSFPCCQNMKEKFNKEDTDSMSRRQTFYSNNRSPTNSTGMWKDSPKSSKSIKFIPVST

CCN1C(=O)N2Cc3cc(OC)cc(OC)c3[C@@H](C)C=C2C12CCN(Cc1cccn1C)CC2 [ER-819924-01]
inhibition at 1 µM (PRP): 5.4%
inhibition at 1 µM (OPRM1): 35%
inhibition at 1 µM (CRF2): -7%
inhibition at 1 µM (BB1): 7.1%
inhibition at 1 µM (EP3): 7.8%
inhibition at 1 µM (PAC1): 4.1%
inhibition at 1 µM (5-HT2B): 11.3%
inhibition at 1 µM (CX3CR1): 1.7%
inhibition at 1 µM (ETB): 6.2%
inhibition at 1 µM (A3): 10.6%
inhibition at 1 µM (PTH2): -6.2%
inhibition at 1 µM (SST4): -2.8%
inhibition at 1 µM (M3): 8.9%
activity in FLIPR functional screen versus other GPCR's (EP4 [1]; 1 μM, Millipore outsourced data): showed activity only against the EP4 receptor
inhibition at 1 µM (EP4 [1]; antagonist mode): 100%
inhibition at 1 µM (VPAC2): -3.7%
inhibition at 1 µM (GPR54): -0.4%
inhibition at 1 µM (S1P5): -7.4%
inhibition at 1 µM (BB3): 6.2%
inhibition at 1 µM (CHEMR23): -3.2%
inhibition at 1 µM (OX1): 0.7%
inhibition at 1 µM (NK3): -2.2%
inhibition at 1 µM (S1P1): 3.9%
inhibition at 1 µM (V1A): -3.9%
inhibition at 1 µM (NK2): 2.1%
% INHIBITION ([2]; CONC. 0.1 μm): 3%
% INHIBITION ([2]; CONC. 1 μm): 0%
IC50 (EP4 [3]): 28 nM
inhibition at 1 µM (GABA): 6%
inhibition at 1 µM (PAR4): -38.6%
inhibition at 1 µM (GCGR): 8.6%
inhibition at 1 µM (CCK2): -0.4%
% INHIBITION (Leukotriene, BLT (LTB4); CONC. 0.1 μm): −12%
% INHIBITION (Leukotriene, BLT (LTB4); CONC. 1 μm): −11%
inhibition at 1 µM (LPA3): 9.6%
inhibition at 1 µM (FPR1): 8%
inhibition at 1 µM (TRH): -11.1%
inhibition at 1 µM (MC2): -1%
inhibition at 1 µM (OX2): 8.8%
inhibition at 1 µM (RDKR2): 1.7%
inhibition at 1 µM (H2): 1.8%
